# Patent publication US12180193B2, “Accelerating fibrosarcoma protein degrading compounds and associated methods of use” (Arvinas Operations, Inc., priority 2020, dated 2024)
# Assays:
# BRAF G466V = target: T1, BRAF G466V (Homo sapiens, UniProt P15056, G466V); test: Cellular assay of target protein degradation, T-Rex 293 cells stably transfected with HA-BRAF G466V (HA immunofluorescence, high content imaging); format: cell-based; conditions: T-Rex 293 HA-BRAF G466V; for DC50: half maximal degradation, read-out: BRaf G466V DC50; for Dmax: maximum degradation observed
# T1 construct: expressed in transfected cells
# Outline: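 Dose range spans 30 nM to 3 pM (0.1% DMSO) over 24 hours at 37° C, in cells induced with 0.75 ng/mL doxycycline. Fixed cells are probed with anti-HA antibody overnight at 4° C, then imaged; half-maximal degradation and maximum degradation are derived.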
# BRAF V600E = target: T2, BRAF V600E (Homo sapiens, UniProt P15056, V600E); test: Cellular assay of target protein degradation, T-Rex 293 cells stably transfected with HA-BRAF_V600E (HA immunofluorescence, high content imaging); format: cell-based; conditions: T-Rex 293 HA-BRAF V600E; for DC50: half maximal degradation, read-out: BRaf V600E DC50; for Dmax: maximum degradation observed
# T2 construct: expressed in transfected cells
# Outline: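 Degradation of the HA-tagged construct is measured after 24 h treatment at 37 °C across 1 μM to 0.1 nM in 0.1% DMSO, in doxycycline-induced (1 ng/mL) cells. DC50 and Dmax come from HA fluorescence imaging.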
# T2 sequence (P15056 whole entry V600E): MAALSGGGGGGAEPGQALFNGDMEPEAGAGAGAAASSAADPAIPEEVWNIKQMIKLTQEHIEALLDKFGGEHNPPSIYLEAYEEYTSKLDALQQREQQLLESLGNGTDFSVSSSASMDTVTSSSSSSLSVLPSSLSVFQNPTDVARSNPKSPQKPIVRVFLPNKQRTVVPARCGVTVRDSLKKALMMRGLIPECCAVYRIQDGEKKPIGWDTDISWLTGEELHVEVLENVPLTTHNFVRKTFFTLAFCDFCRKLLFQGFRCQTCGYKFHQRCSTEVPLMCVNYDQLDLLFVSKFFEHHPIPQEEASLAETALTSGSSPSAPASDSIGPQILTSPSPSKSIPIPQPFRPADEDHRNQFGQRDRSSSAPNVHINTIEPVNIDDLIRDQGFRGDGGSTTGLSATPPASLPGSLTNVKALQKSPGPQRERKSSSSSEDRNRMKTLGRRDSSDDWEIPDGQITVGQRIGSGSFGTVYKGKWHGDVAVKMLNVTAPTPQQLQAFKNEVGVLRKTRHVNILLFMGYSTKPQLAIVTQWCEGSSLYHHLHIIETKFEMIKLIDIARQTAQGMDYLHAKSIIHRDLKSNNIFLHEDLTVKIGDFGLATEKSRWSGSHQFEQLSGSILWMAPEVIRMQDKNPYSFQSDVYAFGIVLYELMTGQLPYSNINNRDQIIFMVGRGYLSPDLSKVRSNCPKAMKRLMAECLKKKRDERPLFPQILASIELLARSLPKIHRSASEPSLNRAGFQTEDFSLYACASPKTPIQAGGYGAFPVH
# T1 sequence (P15056 whole entry G466V): as the sequence (P15056 whole entry V600E) above, with G466V, E600V counted along it
SMILES,DC50 (BRAF G466V) [µM],Dmax (BRAF G466V) [%],DC50 (BRAF V600E) [µM],Dmax (BRAF V600E) [%]
"O=C1CCC(N2Cc3cc(N4CC(CN5CCC(c6ccc(-c7cnc8[nH]cc(C(=O)c9c(F)ccc(NS(=O)(=O)N%10CC[C@@H](F)C%10)c9F)c8c7)cc6)CC5)C4)ccc3C2=O)C(=O)N1 (stereo partly drawn) [Compound 7, (3R)-N-[3-(5-{4-[1-({1-[2-(2,6-dioxopiperidin-3-yl)-1-oxo-2,3-dihydro-1H-isoindol-5-yl]azetidin-3-yl}methyl)piperidin-4-yl]phenyl}-1H-pyrrolo[2,3-b]pyridine-3-carbonyl)-2,4-difluorophenyl]-3-fluoropyrrolidine-1-sulfonamide]",0.001 to 0.01,> 70,0.005 to 0.05,35 to 70
"O=C1CCC(N2Cc3cc(OCCCOC4CCN(c5ccc(-c6cnc7[nH]cc(C(=O)c8c(F)ccc(NS(=O)(=O)N9CC[C@@H](F)C9)c8F)c7c6)cc5)CC4)ccc3C2=O)C(=O)N1 (stereo partly drawn) [Compound 139, (3R)-N-[3-(5-{4-[4-(3-{[2-(2,6-dioxopiperidin-3-yl)-1-oxo-2,3-dihydro-1H-isoindol-5-yl]oxy}propoxy)piperidin-1-yl]phenyl}-1H-pyrrolo[2,3-b]pyridine-3-carbonyl)-2,4-difluorophenyl]-3-fluoropyrrolidine-1-sulfonamide]",0.001 to 0.01,> 70,0.05 to 0.5,35 to 70
"O=C1CC[C@H](NC(=O)c2ccc(N3CCC(CN4CC5(C4)CN(c4ccc(-c6cnc7[nH]cc(C(=O)c8c(F)ccc(NS(=O)(=O)N9CC[C@@H](F)C9)c8F)c7c6)cc4)C5)CC3)cc2F)C(=O)N1 [Compound 29, 4-(4-{[6-(4-{3-[2,6-difluoro-3-({[(3R)-3-fluoropyrrolidin-1-yl]sulfonyl}amino)benzoyl]-1H-pyrrolo[2,3-b]pyridin-5-yl}phenyl)-2,6-diazaspiro[3.3]heptan-2-yl]methyl}piperidin-1-yl)-N-[(3S)-2,6-dioxopiperidin-3-yl]-2-fluorobenzamide]",0.001 to 0.01,35 to 70,0.005 to 0.05,35 to 70
"O=C1CCC(N2Cc3cc(CCCCN4CC5(C4)CN(c4ccc(-c6cnc7[nH]cc(C(=O)c8c(F)ccc(NS(=O)(=O)N9CC[C@@H](F)C9)c8F)c7c6)cc4)C5)ccc3C2=O)C(=O)N1 (stereo partly drawn) [Compound 321, (3R)-N-(3-{5-[4-(6-{4-[2-(2,6-dioxopiperidin-3-yl)-1-oxo-2,3-dihydro-1H-isoindol-5-yl]butyl}-2,6-diazaspiro[3.3]heptan-2-yl)phenyl]-1H-pyrrolo[2,3-b]pyridine-3-carbonyl}-2,4-difluorophenyl)-3-fluoropyrrolidine-1-sulfonamide]",0.001 to 0.01,> 70,0.005 to 0.05,35 to 70
"O=C1CC[C@@H](NC(=O)N2CCCc3c(N4CC5(CN(CCc6ccc(-c7cnc8[nH]cc(C(=O)c9c(F)ccc(NS(=O)(=O)N%10CC[C@@H](F)C%10)c9F)c8c7)cc6)C5)C4)ccnc32)C(=O)N1 [Compound 380, 5-{6-[2-(4-{3-[2,6-difluoro-3-({[(3R)-3-fluoropyrrolidin-1-yl]sulfonyl}amino)benzoyl]-1H-pyrrolo[2,3-b]pyridin-5-yl}phenyl)ethyl]-2,6-diazaspiro[3.3]heptan-2-yl}-N-[(3R)-2,6-dioxopiperidin-3-yl]-1,2,3,4-tetrahydro-1,8-naphthyridine-1-carboxamide]",0.001 to 0.01,< 35,> 0.5,
"O=C1CCC(N2Cc3cc(OC[C@@H](O)CN4CC5(C4)CN(c4ccc(-c6cnc7[nH]cc(C(=O)c8c(F)ccc(NS(=O)(=O)N9CC[C@@H](F)C9)c8F)c7c6)cc4)C5)ccc3C2=O)C(=O)N1 (stereo partly drawn) [Compound 122, (3R)-N-{3-[5-(4-{6-[(2S)-3-{[2-(2,6-dioxopiperidin-3-yl)-1-oxo-2,3-dihydro-1H-isoindol-5-yl]oxy}-2-hydroxypropyl]-2,6-diazaspiro[3.3]heptan-2-yl}phenyl)-1H-pyrrolo[2,3-b]pyridine-3-carbonyl]-2,4-difluorophenyl}-3-fluoropyrrolidine-1-sulfonamide]",0.001 to 0.01,> 70,0.005 to 0.05,35 to 70
"O=C1CCC(N2Cc3cc(N4CC(CC5CCN(c6ccc(-c7cnc8[nH]cc(C(=O)c9c(F)ccc(NS(=O)(=O)N%10CC[C@@H](F)C%10)c9F)c8c7)cc6)CC5)C4)ccc3C2=O)C(=O)N1 (stereo partly drawn) [Compound 306, (3R)-N-[3-(5-{4-[4-({1-[2-(2,6-dioxopiperidin-3-yl)-1-oxo-2,3-dihydro-1H-isoindol-5-yl]azetidin-3-yl}methyl)piperidin-1-yl]phenyl}-1H-pyrrolo[2,3-b]pyridine-3-carbonyl)-2,4-difluorophenyl]-3-fluoropyrrolidine-1-sulfonamide]",0.001 to 0.01,35 to 70,0.05 to 0.5,35 to 70
"COc1ccc(NS(=O)(=O)N2CC[C@@H](F)C2)c(F)c1C(=O)c1c[nH]c2ncc(-c3ccc(N4CCC(CN5CCC(c6ccc7c(c6)CN(C6CCC(=O)NC6=O)C7=O)CC5)CC4)cc3)cc12 (stereo partly drawn) [Compound 269, (3R)-N-[3-(5-{4-[4-({4-[2-(2,6-dioxopiperidin-3-yl)-1-oxo-2,3-dihydro-1H-isoindol-5-yl]piperidin-1-yl}methyl)piperidin-1-yl]phenyl}-1H-pyrrolo[2,3-b]pyridine-3-carbonyl)-2-fluoro-4-methoxyphenyl]-3-fluoropyrrolidine-1-sulfonamide]",0.001 to 0.01,35 to 70,0.005 to 0.05,35 to 70
O=C1CCC(N2Cc3cc(N4CCC(N5CCC56CN(c5ccc(-c7cnc8[nH]cc(C(=O)c9c(F)ccc(NS(=O)(=O)N%10CC[C@@H](F)C%10)c9F)c8c7)cc5)C6)CC4)ccc3C2=O)C(=O)N1 (stereo partly shown) [Example 9],0.001 to 0.01,35 to 70,0.05 to 0.5,35 to 70
"N#Cc1cc(-c2cnc3[nH]cc(C(=O)c4c(F)ccc(NS(=O)(=O)N5CC[C@@H](F)C5)c4F)c3c2)ccc1N1CCC(CN2CCC(c3ccc4c(c3)CN([C@H]3CCC(=O)NC3=O)C4=O)CC2)CC1 [Compound 205, (3R)—N-{3-[5-(3-cyano-4-{4-[(4-{2-[(3S)-2,6-dioxopiperidin-3-yl]-1-oxo-2,3-dihydro-1H-isoindol-5-yl}piperidin-1-yl)methyl]piperidin-1-yl}phenyl)-1H-pyrrolo[2,3-b]pyridine-3-carbonyl]-2,4-difluorophenyl}-3-fluoropyrrolidine-1-sulfonamide]",< 0.001,35 to 70,0.005 to 0.05,35 to 70
"O=C1CC[C@@H](N2Cc3cc(N4CCC(CN5CC6(C5)CN(c5ccc(-c7cnc8[nH]cc(C(=O)c9c(F)ccc(NS(=O)(=O)N%10CC[C@@H](F)C%10)c9F)c8c7)cc5)C6)CC4)c(F)cc3C2=O)C(=O)N1 [Compound 56, (3R)-N-{3-[5-(4-{6-[(1-{2-[(3R)-2,6-dioxopiperidin-3-yl]-6-fluoro-1-oxo-2,3-dihydro-1H-isoindol-5-yl}piperidin-4-yl)methyl]-2,6-diazaspiro[3.3]heptan-2-yl}phenyl)-1H-pyrrolo[2,3-b]pyridine-3-carbonyl]-2,4-difluorophenyl}-3-fluoropyrrolidine-1-sulfonamide]",< 0.001,> 70,0.005 to 0.05,35 to 70
"O=C1CCC(N2Cc3cc(N4CCC(CCCN5CCN(c6ccc(-c7cnc8[nH]cc(C(=O)c9c(F)ccc(NS(=O)(=O)N%10CC[C@@H](F)C%10)c9F)c8c7)cc6)CC5)CC4)ccc3C2=O)C(=O)N1 (stereo partly drawn) [Compound 137, (3R)-N-[3-(5-{4-[4-(3-{1-[2-(2,6-dioxopiperidin-3-yl)-1-oxo-2,3-dihydro-1H-isoindol-5-yl]piperidin-4-yl}propyl)piperazin-1-yl]phenyl}-1H-pyrrolo[2,3-b]pyridine-3-carbonyl)-2,4-difluorophenyl]-3-fluoropyrrolidine-1-sulfonamide]",0.001 to 0.01,> 70,0.005 to 0.05,35 to 70
"O=C1CC[C@H](N2Cc3cc(OC[C@@H](O)CN4CC5(C4)CN(c4ccc(-c6cnc7[nH]cc(C(=O)c8c(F)ccc(NS(=O)(=O)N9CC[C@@H](F)C9)c8F)c7c6)cc4)C5)ccc3C2=O)C(=O)N1 [Compound 165, (3R)-N-{3-[5-(4-{6-[(2S)-3-({2-[(3S)-2,6-dioxopiperidin-3-yl]-1-oxo-2,3-dihydro-1H-isoindol-5-yl}oxy)-2-hydroxypropyl]-2,6-diazaspiro[3.3]heptan-2-yl}phenyl)-1H-pyrrolo[2,3-b]pyridine-3-carbonyl]-2,4-difluorophenyl}-3-fluoropyrrolidine-1-sulfonamide]",0.001 to 0.01,> 70,0.005 to 0.05,35 to 70
"O=C1CCC(N2Cc3cc(N4CC(CN5CCN(Cc6ccc(-c7cnc8[nH]cc(C(=O)c9c(F)ccc(NS(=O)(=O)N%10CC[C@@H](F)C%10)c9F)c8c7)cc6)CC5)C4)ccc3C2=O)C(=O)N1 (stereo partly drawn) [Compound 192, (3R)-N-{3-[5-(4-{[4-({1-[2-(2,6-dioxopiperidin-3-yl)-1-oxo-2,3-dihydro-1H-isoindol-5-yl]azetidin-3-yl}methyl)piperazin-1-yl]methyl}phenyl)-1H-pyrrolo[2,3-b]pyridine-3-carbonyl]-2,4-difluorophenyl}-3-fluoropyrrolidine-1-sulfonamide]",0.001 to 0.01,> 70,0.005 to 0.05,35 to 70
